As usually defined, the MIC is the lowest concentration that inhibits growth of the organism.

Values after ≈ are worked out from the molar mass of the structure shown. Values joined by “and” are separate entries in the source; they are usually repeats but may differ in a detail not shown here. Equal values may be shown once. Bounds are passed on as bounds.

Test systems include Streptococcus salivarius; Candida krusei ATCC 6258; Streptococcus oralis; Streptococcus equi; Klebsiella pneumoniae; Staphylococcus aureus MR; Candida glabrata; Listeria monocytogenes; Streptococcus mutans; Candida albicans; Pasteurella multocida; Escherichia coli UB1005.
Test in all cases: ≥ marks a high value that may be exact or a test limit, other limits are often not marked, values filed in µg/mL are converted to µM
Experiment [1] relates to Micrococcus luteus NBRC 3333.
The test system of experiment [2] is Candida viswanathii NBRC 10321.
The test system of experiment [3] is Staphylococcus epidermidis NBRC 12993.
Experiment [4] relates to Pseudomonas putida NBRC 100650.
Experiment [5] deals with Aspergillus oryzae NBRC 100959.
Experiment [6] relates to Escherichia coli NBRC 3972.
Experiment [7] relates to Escherichia coli ATCC 8739.
The subject of experiment [8] is Staphylococcus aureus HNCMO 112011.
The subject of experiment [9] is Acinetobacter baumannii ATCC 17978.
The subject of experiment [10] is Streptococcus pyogenes ATCC 19615.
The test system of experiment [11] is Streptococcus agalactiae ATCC 12386.
The subject of experiment [12] is Candida parapsilosis ATCC 22019.
The test system of experiment [13] is Streptococcus lutetiensis.
Experiment [14] has as its system Streptococcus pneumoniae ATCC 49619.
For experiment [15], the system named is Pseudomonas aeruginosa ATCC 27853.
For experiment [16], the system named is Streptococcus dysgalactiae.
Experiment [17] has as its system Staphylococcus aureus ATCC 29213.
The test system of experiment [18] is Lacticaseibacillus rhamnosus 1.0925.
Experiment [19] deals with Escherichia coli ATCC 25922.
Experiment [20] concerns Lacticaseibacillus rhamnosus 1.0386.
The subject of experiment [21] is Lacticaseibacillus rhamnosus 1.0385.
For experiment [22], the system named is Lactiplantibacillus plantarum 8014.
Experiment [23] concerns Lacticaseibacillus rhamnosus 1.0911.
Experiment [24] deals with Lacticaseibacillus rhamnosus 7469.
Experiment [25] concerns Staphylococcus epidermidis ATCC 12228.
The subject of experiment [26] is Staphylococcus aureus ATCC 43300.
For experiment [27], the system named is Klebsiella pneumoniae ATCC 13866.
Experiment [28] deals with Staphylococcus aureus ATCC 12493.
For experiment [29], the system named is Enterococcus faecalis NCTC 12697.
In experiment [30] the test system is Candida albicans NCPF 1467.
Experiment [31] deals with Escherichia coli NCTC 10418.
Experiment [32] concerns Staphylococcus aureus NCTC 10788.

For the compound `CC[C@H](C)[C@H](NC(=O)[C@H](CCCCN)NC(=O)[C@@H](N)CCCN=C(N)N)C(=O)N[C@@H](CCCCN)C(=O)N[C@H](C(=O)N[C@@H](Cc1ccc(O)cc1)C(=O)N[C@@H](CC(C)C)C(=O)N1CCC[C@H]1C(=O)N[C@@H](CCCN=C(N)N)C(=O)N[C@@H](CCSC)C(=O)N[C@@H](CCCCN)C(=O)O)C(C)C` [RKIKVYLPRMK], the minimal inhibitory concentration (MIC) in experiment [1] was 17.5 µM (≈ 25 µg/mL); in experiment [2] it was 17.5 µM (≈ 25 µg/mL); in experiment [3], at least 69.8 µM; in experiment [4] it was 17.5 µM (≈ 25 µg/mL); in experiment [5] it was 17.5 µM (≈ 25 µg/mL); in experiment [6], 8.73 µM (≈ 12.5 µg/mL).

Consider `CC[C@H](C)[C@H](NC(=O)[C@H](CCCCN)NC(=O)[C@H](CCCCN)NC(=O)[C@H](C)NC(=O)[C@H](CC(C)C)NC(=O)[C@H](C)NC(=O)[C@H](C)NC(=O)[C@H](CC(C)C)NC(=O)[C@H](C)NC(=O)[C@H](CCCCN)NC(=O)[C@H](CCCN=C(N)N)NC(=O)[C@H](CCCN=C(N)N)NC(=O)[C@H](CCCN=C(N)N)NC(=O)[C@H](CS)NC(=O)[C@H](Cc1ccc(O)cc1)NC(=O)[C@H](CC(C)C)NC(=O)[C@@H]1CCCN1C(=O)[C@H](CCCN=C(N)N)NC(=O)[C@H](CCCN=C(N)N)NC(=O)[C@H](CS)NC(=O)[C@H](CCC(N)=O)NC(=O)[C@@H](N)CCC(N)=O)C(=O)N[C@@H](CC(C)C)C(=O)O` [QQCRRPLYCRRRKALAALAKKIL], for which the MIC in [7], in experiment [8] and in experiment [9] was 3.1 µM (≈ 8.54 µg/mL) throughout.

For `CC[C@H](C)[C@H](NC(=O)CNC(=O)[C@H](CC(=O)O)NC(=O)CNC(=O)[C@H](CC(C)C)NC(=O)[C@H](CCCN=C(N)N)NC(=O)[C@H](CCCCN)NC(=O)[C@H](CC(C)C)NC(=O)[C@H](CC(C)C)NC(=O)[C@H](CO)NC(=O)[C@H](CCCN=C(N)N)NC(=O)[C@H](CCCN=C(N)N)NC(=O)[C@H](CCCCN)NC(=O)[C@@H](NC(=O)[C@H](CCCCN)NC(=O)[C@@H](N)CO)[C@@H](C)O)C(=O)N[C@@H](CCCN=C(N)N)C(=O)NCC(=O)N[C@@H](Cc1ccccc1)C(=O)N[C@@H](Cc1c[nH]c2ccccc12)C(=O)N[C@@H](CC(N)=O)C(=O)NCC(=O)N[C@@H](Cc1ccccc1)C(=O)N[C@@H](CCCN=C(N)N)C(=O)NCC(=O)N[C@@H](CCCN=C(N)N)C(=O)N[C@@H](CCCCN)C(=O)O` [SKTKRRSLLKRLGDGIRGFWNGFRGRK], the MIC in the experiment on Streptococcus salivarius amounted to 10 µM (≈ 32 µg/mL); in experiment [10] it was 20.1 µM (≈ 64 µg/mL); in [11] it was 20.1 µM (≈ 64 µg/mL); in [12], 10 µM (≈ 32 µg/mL); in the experiment with Candida krusei ATCC 6258, 20.1 µM (≈ 64 µg/mL); in the experiment with Streptococcus oralis it was 20.1 µM (≈ 64 µg/mL). Moreover, the MIC in experiment [13] is 20.1 µM (≈ 64 µg/mL); with Streptococcus equi, 20.1 µM (≈ 64 µg/mL); in [14], 20.1 µM (≈ 64 µg/mL); against Klebsiella pneumoniae it was above 20.1 µM; against Staphylococcus aureus MR, 10 µM (≈ 32 µg/mL); in the experiment with Candida glabrata, 20.1 µM (≈ 64 µg/mL). For the same compound, the MIC was 20.1 µM (≈ 64 µg/mL) against Listeria monocytogenes; above 20.1 µM in [15]; 20.1 µM (≈ 64 µg/mL) in [16]; 20.1 µM (≈ 64 µg/mL) in the experiment with Streptococcus mutans; 10 µM and 6.27 µM in [17]; above 20.1 µM in the experiment on Candida albicans. The MIC against Pasteurella multocida was 20.1 µM (≈ 64 µg/mL).

Consider `NC(=O)CC[C@H](NC(=O)[C@H](Cc1c[nH]c2ccccc12)NC(=O)[C@H](Cc1c[nH]c2ccccc12)NC(=O)[C@H](Cc1c[nH]c2ccccc12)NC(=O)[C@H](CCC(N)=O)NC(=O)[C@H](Cc1c[nH]c2ccccc12)NC(=O)[C@H](CCCN=C(N)N)NC(=O)[C@@H](N)CCCN=C(N)N)C(=O)N[C@@H](Cc1c[nH]c2ccccc12)C(=O)N[C@@H](CCCN=C(N)N)C(=O)N[C@@H](CCCN=C(N)N)C(N)=O` [RRWQWWWQWRR], for which the minimum inhibitory concentration (MIC) in [18] is at least 64 µM; in [19], 4 µM (≈ 7.32 µg/mL); in [20] it was 16 µM (≈ 29.3 µg/mL); in [21], at least 64 µM; in the experiment with Escherichia coli UB1005, 4 µM (≈ 7.32 µg/mL); in [22] it was 8 µM (≈ 14.6 µg/mL). Besides, the MIC in experiment [23] was at least 64 µM; in experiment [24], at least 64 µM; in [25] it was 4 µM (≈ 7.32 µg/mL); in experiment [15], 4 µM (≈ 7.32 µg/mL); in experiment [17], 4 µM (≈ 7.32 µg/mL); in experiment [26] it was 4 µM (≈ 7.32 µg/mL).

Consider `CC[C@H](C)[C@H](NC(=O)CN)C(=O)N[C@@H](Cc1cnc[nH]1)C(=O)NCC(=O)N[C@H](C(=O)N[C@H](C(=O)N[C@@H](CCCN=C(N)N)C(=O)N[C@@H](CO)C(=O)N[C@@H](Cc1ccccc1)C(=O)N[C@@H](CCSC)C(=O)N[C@@H](CCCN=C(N)N)C(=O)N[C@@H](CCSC)C(=O)N[C@@H](CC(C)C)C(=O)NCC(=O)N[C@@H](Cc1cnc[nH]1)C(=O)N[C@@H](CC(C)C)C(=O)NCC(=O)O)C(C)C)C(C)C` [GIHGVVRSFMRMLGHLG], for which the minimal inhibitory concentration (MIC) was at least 34.3 µM in experiment [27] and 4.28 µM (≈ 8 µg/mL) in experiment [15].

For `CC[C@H](C)[C@H](NC(=O)[C@@H](NC(=O)CNC(=O)[C@@H]1CCCN1C(=O)[C@@H](NC(=O)[C@@H](NC(=O)[C@H](CC(N)=O)NC(=O)[C@H](C)NC(=O)[C@H](C)NC(=O)[C@@H](NC(=O)[C@H](CCCCN)NC(=O)[C@H](CC(C)C)NC(=O)[C@@H](NC(=O)CNC(=O)[C@@H]1CCCN1C(=O)[C@H](CC(C)C)NC(=O)[C@@H](N)Cc1ccccc1)[C@@H](C)CC)C(C)C)C(C)C)C(C)C)C(C)C)C(=O)O` [FLPGILKVAANVVPGVI], the minimal inhibitory concentration (MIC) in experiment [28] was at least 512 µM; in experiment [29], at least 512 µM; in experiment [30], at least 512 µM; in experiment [31], at least 512 µM; in [15], above 512 µM; in [32], at least 512 µM.

The values above are taken from DBAASP.
